Laboratory results published in US20250127790A1, “COMBINATION THERAPY USING VPS34 INHIBITORS” (Deciphera Pharmaceuticals, LLC, priority 2021, published 2025).

What was measured:
[1] = tested on: Renca renal cell carcinoma cells; assay: IncuCyte live-cell imaging, cell confluence, Renca cells; type: cell-based; details: 2 μM Compound 1, ADU-S100, up to 72 hours
Procedure: (§1) Renca cells were treated with a combination of DMSO or 2 μM Compound 1 alone or in combination with STING agonist ADU-S100 for 24 hours. Treatment with 1 μM staurosporine was used as a positive control for apoptosis induction. To assess cell proliferation, 1000 cells/well were plated in 96-well plates. After 24 h, cells were treated with compounds in 100 μL complete medium. Phase-contrast images (10×) were acquired every 3 h for 24-72 h and cell confluence (%) was calculated using the IncuCyte S3 live-cell analysis system (Sartorius). For monitoring apoptosis, 5 μM of IncuCyte Caspase-3/7 Green Dye (#4440, Sartorius) was added to the medium at the time of treatment. Both phase-contrast and green fluorescent images were captured. Caspase 3/7 induction was calculated by counting green fluorescent objects per mm^2 and dividing it by the percentage of cell confluency.

[2] = tested on: Renca renal cell carcinoma cells; assay: IncuCyte live-cell imaging, Caspase 3/7 activity, Renca cells; type: cell-based; details: 2 μM Compound 1, ADU-S100, 24 hours
Procedure: as §1

[3] = tested on: A-498 renal cell carcinoma cells; assay: Cytokine secretion assay (MSD) with siRNA knockdown, A-498 cells; type: cell-based, human; details: 24 h; for CCL5 and CXCL10 secretion with siRNA knockdown of CGAS: siCGAS; for CCL5 and CXCL10 secretion with siRNA knockdown of CGAS / increase in CCL5 protein secretion / increase in CXCL10 protein secretion / CCL5 and CXCL10 protein secretion with siRNA knockdown of STING: 2 μM; for CCL5 and CXCL10 secretion with siRNA knockdown of CGAS / CCL5 and CXCL10 protein secretion with siRNA knockdown of STING / CCL5 or CXCL10 protein secretion with siRNA knockdown of TBK1: vs compound alone; for increase in CCL5 protein secretion / increase in CXCL10 protein secretion: siRNA against non-specific controls (siSCR); for CCL5 and CXCL10 protein secretion with siRNA knockdown of STING: siSTING; for CCL5 or CXCL10 protein secretion with siRNA knockdown of TBK1: siTBK1, 2 μM
Procedure: A-498 cells were transfected with scrambled siRNA control (siSCR) or siRNA targeting TBK1 (siTBK1), STING (siSTING) or CGAS (siCGAS). After 48 h cells were treated with DMSO or 2 μM of VPS34 inhibitor (Compound 1 or Compound 2) for 24 h. Cell culture medium was centrifuged at 1600 rpm for 10 min at 4° C. and obtained supernatant stored at −80° C. Cytokine levels were quantified using following Meso Scale Discovery (MSD) assays: human R-PLEX RANTES/CCL5 (#F21ZN), U-PLEX CXCL10/IP-10 (#K151UFK). Assays were run on the SECTOR Quickplex Imager and analyzed using Discovery Workbench version 4.0 (MSD).

[4] = tested on: 786-O renal cell carcinoma cells; assay: qRT-PCR, Type 1 Interferon pathway gene expression in 786-O cells; type: cell-based, Human; details: 2 μM, 24 hr
Procedure: (§2) 786-O cells were grown in RPMI-1640 medium containing 10% fetal bovine serum. Cells were then incubated for 2 days at 37 degrees Celsius, 5% CO2, and 95% humidity. 786-O cells were incubated with 2 μM of compound 1 for 24 hr. Cells were washed with PBS and RNA was isolated using the PureLink RNA kit (#12183018A, Thermo Fisher Scientific) according to the manufacturer's protocol. Genomic DNA was removed using DNA-binding columns (RNeasy plus kit, #74134, Qiagen) and/or DNase treatment (#12185010, Thermo Fisher Scientific). RNA was quantified using NanoDrop (Thermo Fisher Scientific) and 50 ng/μL RNA was used for cDNA synthesis with SuperScript IV VILO Master Mix (#11756050, Thermo Fisher Scientific). Quantitative RT-PCR (qRT-PCR) was run with diluted cDNA (1:25 or 1:12.5), PowerUp SYBR Green Master Mix (#A25741, Thermo Fisher Scientific), and 200 nM primers (see below) on a CFX Connect RT-PCR system (BioRad). Data was analyzed using the ΔΔCT method. Results are mean±SEM of three independent experiments.

[5] = tested on: YUMM 1.7 melanoma cells; assay: Cytokine secretion assay, combination with cGAMP, YUMM1.7 cells; type: cell-based, mouse; details: 24 hours, 5 μM Compound 1 or 10 μM Compound 2, 10 mg/ml cGAMP
Procedure: as §2, with “YUMM1.7” for “786-O”, “treated” for “grown in RPMI-1640 medium containing 10% fetal bovine serum. Cells were then incubated for 2 days at 37 degrees Celsius, 5% CO2, and 95% humidity. 786-O cells were incubated with 2 μM of compound 1”, “hours with DMSO or VPS34 inhibitors (5 μM Compound 1 or 10 μM Compound 2) in combination with 10 mg/ml STING agonist cGAMP (green bars).” for “hr.”
Cell culture medium was centrifuged at 1600 rpm for 10 min at 4° C. and obtained supernatant stored at −80° C. Cytokine levels were quantified using following Meso Scale Discovery (MSD) assays: mouse U-PLEX RANTES/CCL5 (#K152A2K) and U-PLEX IP-10/CXCL10 (#K152UFK). Assays were run on the SECTOR Quickplex Imager and analyzed using Discovery Workbench version 4.0 (MSD).

[6] = tested on: 786-O renal cell carcinoma cells; assay: qRT-PCR with siRNA knockdown of STING pathway genes, 786-O cells; type: cell-based, Human; details: 2 μM, 24 h
Procedure: Quantitative reverse-transcriptase polymerase chain reaction (RT-PCR) assay 786-O cells were grown in RPMI-1640 medium containing 10% fetal bovine serum. Cells were then incubated for 2 days at 37 degrees Celsius, 5% CO2, and 95% humidity. A498 cells were transfected with scrambled siRNA control (siSCR) or siRNA targeting TBK1 (siTBK1), STING (siSTING) or CGAS (siCGAS). After 48 h cells were treated with DMSO or 2 μM of VPS34 inhibitor (Compound 1 or Compound 2) for 24 h. Cells were washed with PBS and RNA was isolated using the PureLink RNA kit (#12183018A, Thermo Fisher Scientific) according to the manufacturer's protocol. Genomic DNA was removed using DNA-binding columns (RNeasy plus kit, #74134, Qiagen) and/or DNase treatment (#12185010, Thermo Fisher Scientific). RNA was quantified using NanoDrop (Thermo Fisher Scientific) and 50 ng/μL RNA was used for cDNA synthesis with SuperScript IV VILO Master Mix (#11756050, Thermo Fisher Scientific). Quantitative RT-PCR (qRT-PCR) was run with diluted cDNA (1:25 or 1:12.5), PowerUp SYBR Green Master Mix (#A25741, Thermo Fisher Scientific), and 200 nM primers (see below) on a CFX Connect RT-PCR system (BioRad). Data was analyzed using the ΔΔCT method. Results are mean±SEM of three independent experiments.

| Structure (SMILES) | cell confluence [1] | Caspase 3/7 activity [2] | CCL5 and CXCL10 secretion with siRNA knockdown of CGAS [3] | increase in CCL5 protein secretion [3] | increase in CXCL10 protein secretion [3] | CCL5 and CXCL10 protein secretion with siRNA knockdown of STING [3] | CCL5 or CXCL10 protein secretion with siRNA knockdown of TBK1 [3] | increase in mRNA expression of IRF9 [4] | CCL5 protein secretion [5] | CXCL10 protein secretion [5] | increase in mRNA expression of CCL5 [6] | increase in mRNA expression of CXCL10 [6] | increase in mRNA expression of IFNB1 [6] | increase in mRNA expression of IRF7 [6] |
| --- | --- | --- | --- | --- | --- | --- | --- | --- | --- | --- | --- | --- | --- | --- |
| Nc1ncnc2c1ncn2[C@@H]1O[C@@H]2COP(=O)([S-])O[C@@H]3[C@H](O)[C@@H](COP([O-])(=S)O[C@H]2[C@H]1O)O[C@H]3n1cnc2c(N)ncnc21.[Na+].[Na+] (stereo partly shown) [ADU-S100, reference compound] | no effect | mild effects | – | – | – | – | – | – | – | – | – | – | – | – |
| C[C@@H]1COCCN1c1cc(N2CCCC[C@@H]2C(F)(F)F)[nH]c(=O)c1 [Compound 1, 4-((R)-3-methylmorpholino)-6-((R)-2-(trifluoromethyl)piperidin-1-yl)pyridin-2(1H)-one] | decreased | increased | down to the levels of DMSO controls | ~2 fold | ~2 fold | down to the levels of DMSO controls | non-significant changes | approximately 2 fold | increased | increased | > 3 fold | ~5 fold | > 5 fold | > 2 fold |
| C[C@@H]1COCCN1c1cc(=O)n2c(n1)N(Cc1cncc(Cl)c1)[C@H](C(F)(F)F)CC2 [Compound 2, (S)-9-((5-chloropyridin-3-yl)methyl)-2-((R)-3-methylmorpholino)-8-(trifluoromethyl)-6,7,8,9-tetrahydro-4H-pyrimido[1,2-a]pyrimidin-4-one] | – | – | down to the levels of DMSO controls | ~2 fold | ~2 fold | down to the levels of DMSO controls | non-significant changes | approximately 2 fold | increased | increased | ~4 fold | ~5 fold | ~4 fold | ~3 fold |
